Test results: ChEMBL document CHEMBL1697781, “Assessment of the health effects of chemicals in humans: II. Construction of an adverse effects database for QSAR modeling” (Curr Drug Discov Technol, 2004)

Legend:
Details in all cases: human; call rule not given here
[1] = test system: Hepatotoxicity; test: FDA HLAED, liver enzyme composite activity
[2] = test system: Hepatotoxicity; test: FDA HLAED, alkaline phosphatase increase
[3] = test system: Hepatotoxicity; test: FDA HLAED, lactate dehydrogenase (LDH) increase
[4] = test system: Hepatotoxicity; test: FDA HLAED, serum glutamic oxaloacetic transaminase (SGOT) increase
[5] = test system: Hepatotoxicity; test: FDA HLAED, gamma-glutamyl transferase (GGT) increase
[6] = test system: Hepatotoxicity; test: FDA HLAED, serum glutamic pyruvic transaminase (SGPT) increase
Wherever GGT Increase - Index Value is given: reference of the scale not given here.
Wherever LDH Increase - Index Value is given: reference of the scale not given here.

Which “Composite Activity - Active” value [1] does the source give for O=c1[nH]cnc2c1ncn2[C@H]1CC[C@@H](CO)O1 [DIDANOSINE] here?
The value was 3.

And the “Composite Activity - Marginal” value [1]?
Its value is 1.

And the “Composite Activity - Score” value [1]?
Its value is “Active”.

What about the “Alkaline Phosphatase Increase - Activity Score” value [2] of the same compound?
The value was “Active”.

And the “Alkaline Phosphatase Increase - Index Value” [2]?
Its value is 14.5.

And the “Alkaline Phosphatase Increase - Number of Reports” value [2]?
The value was “>= 4”.

What about the “LDH Increase - Activity Score” value [3] of the same compound?
Its value is “Marginally Active”.

And the “LDH Increase - Index Value” [3]?
The value was 3.

What about the “LDH Increase - Number of Reports” value [3] of the same compound?
The value was “>= 4”.

What about the “SGOT Increase - Activity Score” value [4] of the same compound?
Its value is “Active”.

And the “SGOT Increase - Index Value” [4]?
Its value is 13.7.

And the “SGOT Increase - Number of Reports” value [4]?
The value was “>= 4”.

And the “GGT Increase - Activity Score” value [5]?
The value was “Inactive”.

And the “GGT Increase - Index Value” [5]?
The value was 1.5.

What about the “GGT Increase - Number of Reports” value [5] of the same compound?
Its value is under 4.

What about the “SGPT Increase - Activity Score” value [6] of the same compound?
Its value is “Active”.

What about the “SGPT Increase - Index Value” [6] of the same compound?
Its value is 12.9.

And the “SGPT Increase - Number of Reports” value [6]?
The value was “>= 4”.

C=CCN1C[C@H](C(=O)N(CCCN(C)C)C(=O)NCC)C[C@@H]2c3cccc4[nH]cc(c34)C[C@H]21 [CABERGOLINE] was tested. Which “Composite Activity - Active” value [1] did it give?
The value was 0.

What about the “Composite Activity - Marginal” value [1] of the same compound?
The value was 0.

What about the “Composite Activity - Score” value [1] of the same compound?
The value was “Inactive”.

And the “Alkaline Phosphatase Increase - Activity Score” value [2]?
The value was “Inactive”.

And the “Alkaline Phosphatase Increase - Index Value” [2]?
Its value is 0.

And the “Alkaline Phosphatase Increase - Number of Reports” value [2]?
The value was under 4.

What about the “LDH Increase - Activity Score” value [3] of the same compound?
The value was “Inactive”.

What about the “LDH Increase - Index Value” [3] of the same compound?
Its value is 0.

And the “LDH Increase - Number of Reports” value [3]?
The value was under 4.

And the “SGOT Increase - Activity Score” value [4]?
The value was “Inactive”.

And the “SGOT Increase - Index Value” [4]?
The value was 0.

And the “SGOT Increase - Number of Reports” value [4]?
The value was under 4.

And the “GGT Increase - Activity Score” value [5]?
The value was “Inactive”.

And the “GGT Increase - Index Value” [5]?
The value was 0.

And the “GGT Increase - Number of Reports” value [5]?
The value was under 4.

And the “SGPT Increase - Activity Score” value [6]?
Its value is “Inactive”.

And the “SGPT Increase - Index Value” [6]?
Its value is 0.

And the “SGPT Increase - Number of Reports” value [6]?
Its value is under 4.

Which results are given for Nc1nc(O)c2ncn(COC(CO)CO)c2n1 [GANCICLOVIR]?
Composite Activity - Active [1]: 1; Composite Activity - Marginal [1]: 0; Composite Activity - Score [1]: Inactive; Alkaline Phosphatase Increase - Activity Score [2]: Active; Alkaline Phosphatase Increase - Index Value [2]: 4.2; Alkaline Phosphatase Increase - Number of Reports [2]: >= 4; LDH Increase - Activity Score [3]: Inactive; LDH Increase - Index Value [3]: 1.9; LDH Increase - Number of Reports [3]: >= 4; SGOT Increase - Activity Score [4]: Inactive; SGOT Increase - Index Value [4]: 2.7; SGOT Increase - Number of Reports [4]: >= 4; GGT Increase - Activity Score [5]: Inactive; GGT Increase - Index Value [5]: 0.8; GGT Increase - Number of Reports [5]: < 4; SGPT Increase - Activity Score [6]: Inactive; SGPT Increase - Index Value [6]: 2.3; SGPT Increase - Number of Reports [6]: >= 4

How did the “Composite Activity - Active” value [1] turn out when Nc1nc(/C(=C/CC(=O)O)C(=O)N[C@@H]2C(=O)N3C(C(=O)O)=CCS[C@H]23)cs1 [CEFTIBUTEN] was run?
Its value is 0.

What about the “Composite Activity - Marginal” value [1] of the same compound?
The value was 0.

And the “Composite Activity - Score” value [1]?
The value was “Inactive”.

And the “Alkaline Phosphatase Increase - Activity Score” value [2]?
Its value is “Inactive”.

What about the “Alkaline Phosphatase Increase - Index Value” [2] of the same compound?
Its value is 0.

And the “Alkaline Phosphatase Increase - Number of Reports” value [2]?
The value was under 4.

What about the “LDH Increase - Activity Score” value [3] of the same compound?
Its value is “Inactive”.

And the “LDH Increase - Index Value” [3]?
Its value is 0.

And the “LDH Increase - Number of Reports” value [3]?
Its value is under 4.

What about the “SGOT Increase - Activity Score” value [4] of the same compound?
Its value is “Inactive”.

What about the “SGOT Increase - Index Value” [4] of the same compound?
The value was 0.

What about the “SGOT Increase - Number of Reports” value [4] of the same compound?
Its value is under 4.

And the “GGT Increase - Activity Score” value [5]?
The value was “Inactive”.

What about the “GGT Increase - Index Value” [5] of the same compound?
The value was 0.

And the “GGT Increase - Number of Reports” value [5]?
The value was under 4.

And the “SGPT Increase - Activity Score” value [6]?
The value was “Inactive”.

What about the “SGPT Increase - Index Value” [6] of the same compound?
The value was 0.

And the “SGPT Increase - Number of Reports” value [6]?
The value was under 4.

What does the source list for CC(C)C[C@H]1C(=O)N2CCC[C@H]2[C@]2(O)O[C@](NC(=O)[C@@H]3C=C4c5cccc6[nH]c(Br)c(c56)C[C@H]4N(C)C3)(C(C)C)C(=O)N12 [BROMOCRIPTINE]?
Composite Activity - Active [1]: 0; Composite Activity - Marginal [1]: 0; Composite Activity - Score [1]: Inactive; Alkaline Phosphatase Increase - Activity Score [2]: Inactive; Alkaline Phosphatase Increase - Index Value [2]: 0; Alkaline Phosphatase Increase - Number of Reports [2]: < 4; LDH Increase - Activity Score [3]: Inactive; LDH Increase - Index Value [3]: 0; LDH Increase - Number of Reports [3]: < 4; SGOT Increase - Activity Score [4]: Inactive; SGOT Increase - Index Value [4]: 0; SGOT Increase - Number of Reports [4]: < 4; GGT Increase - Activity Score [5]: Inactive; GGT Increase - Index Value [5]: 0; GGT Increase - Number of Reports [5]: < 4; SGPT Increase - Activity Score [6]: Inactive; SGPT Increase - Index Value [6]: 0; SGPT Increase - Number of Reports [6]: < 4

Which “Composite Activity - Active” value [1] does the source give for Nc1ccn([C@@H]2CS[C@H](CO)O2)c(=O)n1 [LAMIVUDINE] here?
Its value is 2.

And the “Composite Activity - Marginal” value [1]?
Its value is 0.

And the “Composite Activity - Score” value [1]?
The value was “Active”.

And the “Alkaline Phosphatase Increase - Activity Score” value [2]?
Its value is “Inactive”.

What about the “Alkaline Phosphatase Increase - Index Value” [2] of the same compound?
Its value is 2.1.

What about the “Alkaline Phosphatase Increase - Number of Reports” value [2] of the same compound?
The value was “>= 4”.

What about the “LDH Increase - Activity Score” value [3] of the same compound?
The value was “Inactive”.

And the “LDH Increase - Index Value” [3]?
The value was 2.1.

What about the “LDH Increase - Number of Reports” value [3] of the same compound?
Its value is “>= 4”.

And the “SGOT Increase - Activity Score” value [4]?
Its value is “Active”.

And the “SGOT Increase - Index Value” [4]?
Its value is 8.7.

And the “SGOT Increase - Number of Reports” value [4]?
Its value is “>= 4”.

What about the “GGT Increase - Activity Score” value [5] of the same compound?
The value was “Inactive”.

And the “GGT Increase - Index Value” [5]?
The value was 1.7.

What about the “GGT Increase - Number of Reports” value [5] of the same compound?
Its value is “>= 4”.

And the “SGPT Increase - Activity Score” value [6]?
The value was “Active”.

And the “SGPT Increase - Index Value” [6]?
The value was 9.

What about the “SGPT Increase - Number of Reports” value [6] of the same compound?
The value was “>= 4”.

What does the source list for Cc1cccc(C)c1NC(=O)C(C)N (configuration not stated) [TOCAINIDE]?
Composite Activity - Active [1]: 0; Composite Activity - Marginal [1]: 1; Composite Activity - Score [1]: Inactive; Alkaline Phosphatase Increase - Activity Score [2]: Inactive; Alkaline Phosphatase Increase - Index Value [2]: 1.7; Alkaline Phosphatase Increase - Number of Reports [2]: >= 4; LDH Increase - Activity Score [3]: Inactive; LDH Increase - Index Value [3]: 1.7; LDH Increase - Number of Reports [3]: >= 4; SGOT Increase - Activity Score [4]: Marginally Active; SGOT Increase - Index Value [4]: 3.5; SGOT Increase - Number of Reports [4]: >= 4; GGT Increase - Activity Score [5]: Inactive; GGT Increase - Index Value [5]: 0; GGT Increase - Number of Reports [5]: < 4; SGPT Increase - Activity Score [6]: Inactive; SGPT Increase - Index Value [6]: 2.2; SGPT Increase - Number of Reports [6]: >= 4

Which “Composite Activity - Active” value [1] does the source give for CO[C@@]1(NC(=O)C2SC(=C(C(N)=O)C(=O)O)S2)C(=O)N2C(C(=O)O)=C(CSc3nnnn3C)CS[C@@H]21 (some centres not stated) [CEFOTETAN] here?
Its value is 0.

What about the “Composite Activity - Marginal” value [1] of the same compound?
Its value is 0.

What about the “Composite Activity - Score” value [1] of the same compound?
The value was “Inactive”.

What about the “Alkaline Phosphatase Increase - Activity Score” value [2] of the same compound?
Its value is “Inactive”.

What about the “Alkaline Phosphatase Increase - Index Value” [2] of the same compound?
Its value is 0.7.

What about the “Alkaline Phosphatase Increase - Number of Reports” value [2] of the same compound?
Its value is under 4.

And the “LDH Increase - Activity Score” value [3]?
The value was “Inactive”.

What about the “LDH Increase - Index Value” [3] of the same compound?
The value was 0.

And the “LDH Increase - Number of Reports” value [3]?
Its value is under 4.

What about the “SGOT Increase - Activity Score” value [4] of the same compound?
Its value is “Inactive”.

What about the “SGOT Increase - Index Value” [4] of the same compound?
Its value is 0.

What about the “SGOT Increase - Number of Reports” value [4] of the same compound?
Its value is under 4.

What about the “GGT Increase - Activity Score” value [5] of the same compound?
Its value is “Inactive”.

And the “GGT Increase - Index Value” [5]?
The value was 0.

What about the “GGT Increase - Number of Reports” value [5] of the same compound?
The value was under 4.

What about the “SGPT Increase - Activity Score” value [6] of the same compound?
The value was “Inactive”.

And the “SGPT Increase - Index Value” [6]?
Its value is 0.

What about the “SGPT Increase - Number of Reports” value [6] of the same compound?
Its value is under 4.

How did the “Composite Activity - Active” value ([1]; Liver) turn out when Clc1ccccc1CN1CCc2sccc2C1 [TICLOPIDINE] was run?
Its value is 0.

And the “Composite Activity - Marginal” value ([1]; Liver)?
Its value is 0.

What about the “Composite Activity - Score” value ([1]; Liver) of the same compound?
Its value is “Inactive”.

What about the “Alkaline Phosphatase Increase - Activity Score” value [2] of the same compound?
Its value is “Inactive”.

What about the “Alkaline Phosphatase Increase - Index Value” [2] of the same compound?
The value was 0.

What about the “Alkaline Phosphatase Increase - Number of Reports” value [2] of the same compound?
The value was under 4.

And the “LDH Increase - Activity Score” value [3]?
Its value is “Inactive”.

And the “LDH Increase - Index Value” [3]?
Its value is 0.

And the “LDH Increase - Number of Reports” value [3]?
Its value is under 4.

And the “SGOT Increase - Activity Score” value [4]?
Its value is “Inactive”.

And the “SGOT Increase - Index Value” [4]?
The value was 0.

What about the “SGOT Increase - Number of Reports” value [4] of the same compound?
The value was under 4.

What about the “GGT Increase - Activity Score” value [5] of the same compound?
The value was “Inactive”.

And the “GGT Increase - Index Value” [5]?
The value was 0.

And the “GGT Increase - Number of Reports” value [5]?
The value was under 4.

And the “SGPT Increase - Activity Score” value [6]?
Its value is “Inactive”.

What about the “SGPT Increase - Index Value” [6] of the same compound?
Its value is 0.

What about the “SGPT Increase - Number of Reports” value [6] of the same compound?
The value was under 4.
